The record followed here is paper PMC3113660 (Journal of medicinal chemistry, 2010).

Molecules are shown by their SMILES. Where a name gives a salt, the structure may show the parent alone.

The subject of test [1] is Trypanosoma brucei rhodesiense (STIB900). Briefly: In vitro growth inhibition assay of T. brucei rhodesiense. Type of test: cell-based.
In test [2] the test system is Plasmodium falciparum (K1, resistant to chloroquine). Put plainly: In vitro growth inhibition assay of P. falciparum. Type of test: cell-based. Particulars: for IC50: Plasmodium falciparum, K1, read-out: antiplasmodial IC50, P. falciparum, in vitro; for fold more active against P. falciparum: relative to diimidazoline 3.

With `CC(C)NC(=N)c1cccc(-c2cn(-c3cccc(C(=N)NC(C)C)c3)nn2)c1.Cl.Cl` [Compound 2, 1,4-Bis(3-N-isopropylamidinophenyl)-1H-1,2,3-triazole Dihydrochloride], the “fold less active against T. brucei rhodesiense” value in test [1] (relative to diamidine 1) is on record as roughly 170 fold.

As to `Cl.Cl.c1cc(C2=NCCN2)cc(-c2cn(-c3cccc(C4=NCCN4)c3)nn2)c1` [Compound 3, 1,4-Bis[3-(4,5-dihydro-1H-imidazol-2-yl)phenyl]-1H-1,2,3-triazole Dihydrochloride], the “fold less active against T. brucei rhodesiense” value in test [1] (relative to diamidine 1) is reported as roughly 170 fold.

Usually IC50 stands for the concentration at which inhibition is half-maximal. Consider `COc1ccc(C(=N)N)cc1-n1cc(-c2cccc(C(=N)N)c2)nn1.Cl.Cl` [Compound 4, 1-(5-Amidino-2-methoxyphenyl)-4-(3-amidinophenyl)-1H-1,2,3-triazole Dihydrochloride], for which the “fold as active against T. brucei rhodesiense” value in test [1] (relative to 2-O-demethylated analogue 10) was 1000 fold. Besides, the half-inhibitory concentration (IC50) in test [2] was less than 58 nM.

With `COc1ccc(C2=NCCN2)cc1-n1cc(-c2cccc(C3=NCCN3)c2)nn1.Cl.Cl` [Compound 6, 1-[5-(4,5-Dihydro-1H-imidazol-2-yl)-2-methoxyphenyl]-4-[3-(4,5-dihydro-1H-imidazol-2-yl)phenyl]-1H-1,2,3-triazole Dihydrochloride], the “fold as active against T. brucei rhodesiense” value in test [1] (relative to 2-O-demethylated analogue 12) was 13 fold. In test [2], the half-maximal inhibitory concentration (IC50) was less than 58 nM and the “fold more active against P. falciparum” value came to 12 fold.

In the case of `CC(C)NC(=N)c1cccc(-c2cn(-c3cc(C(=N)NC(C)C)ccc3O)nn2)c1.Cl.Cl` [Compound 11, 1-(5-N-Isopropylamidino-2-hydroxyphenyl)-4-(3-N-isopropylamidinophenyl)-1H-1,2,3-triazole Dihydrochloride], the “fold lower antiplasmodial activity” value came out at 7 fold in test [2] (relative to congener 2) and 6 fold in test [2] (relative to congener 5).

For `Cl.Cl.Oc1ccc(C2=NCCN2)cc1-n1cc(-c2cccc(C3=NCCN3)c2)nn1` [Compound 12, 1-[5-(4,5-Dihydro-1H-imidazol-2-yl)-2-hydroxyphenyl]-4-[3-(4,5-dihydro-1H-imidazol-2-yl)phenyl]-1H-1,2,3-triazole Dihydrochloride], the “fold less active against T. brucei rhodesiense” value in test [1] (relative to diimidazoline 3) is given as 7 fold.

As for `Cl.Cl.Oc1ccc(C2=NCCN2)cc1-c1cn(-c2cccc(C3=NCCN3)c2)nn1` [Compound 15, 4-[5-(4,5-Dihydro-1H-imidazol-2-yl)-2-hydroxyphenyl]-1-[3-(4,5-dihydro-1H-imidazol-2-yl)phenyl]-1H-1,2,3-triazole Dihydrochloride], in test [2], the IC50 is less than 58 nM and the “fold more active against P. falciparum” value turned out to be 7 fold.

Turning to `Cl.Cl.c1cc(C2=NCCN2)cc(-c2cn(-c3ccc(C4=NCCN4)cc3)nn2)c1` [Compound 18, 1-[4-(4,5-Dihydro-1H-imidazol-2-yl)phenyl]-4-(3-(4,5-dihydro-1H-imidazol-2-yl)phenyl)-1H-1,2,3-triazole Dihydrochloride], the “fold less active against T. brucei rhodesiense” value in test [1] (relative to diamidine 16) is 25 fold.

Regarding `COc1cc(C2=NCCN2)ccc1-n1cc(-c2cccc(C3=NCCN3)c2)nn1.Cl.Cl` [Compound 21, 1-[4-(4,5-Dihydro-1H-imidazol-2-yl)-2-methoxyphenyl]-4-[3-(4,5-dihydro-1H-imidazol-2-yl)phenyl]-1H-1,2,3-triazole Dihydrochloride], the “fold less active against T. brucei rhodesiense” value in test [1] (relative to congener 19) stood at 170 fold.

For `COc1ccc(C2=NCCN2)cc1-c1cn(-c2ccc(C3=NCCN3)cc2)nn1` [Compound 24, 4-[5-(4,5-Dihydro-1H-imidazol-2-yl)-2-methoxyphenyl]-1-[4-(4,5-dihydro-1H-imidazol-2-yl)phenyl]-1H-1,2,3-triazole Dihydrochloride], the IC50 in test [2] is less than 58 nM.

With `Cl.Cl.N=C(N)c1cccc(-c2cn(-c3ccc(C(=N)N)cc3O)nn2)c1` [Compound 25, 1-(4-Amidino-2-hydroxyphenyl)-4-(3-amidinophenyl)-1H-1,2,3-triazole Dihydrochloride], in test [1] (relative to diamidine 16), the “fold less active against T. brucei rhodesiense” value was roughly 22 fold.

As for `CC(C)NC(=N)c1ccc(-n2cc(-c3cc(C(=N)NC(C)C)ccc3O)nn2)cc1` [Compound 29, 4-(5-N-Isopropylamidino-2-hydroxyphenyl)-1-(4-N-isopropylamidinophenyl)-1H-1,2,3-triazole Dihydrochloride], in test [2], the IC50 is less than 58 nM.

With `Cl.Cl.c1cc(C2=NCCN2)cc(-n2cc(-c3ccc(C4=NCCN4)cc3)nn2)c1` [Compound 33, 1-[3-(4,5-Dihydro-1H-imidazol-2-yl)phenyl]-4-[4-(4,5-dihydro-1H-imidazol-2-yl)phenyl]-1H-1,2,3-triazole Dihydrochloride], the “fold less active against T. brucei rhodesiense” value in test [1] (relative to diamidine 31) is reported as 77 fold.

With `COc1ccc(C(=N)N)cc1-n1cc(-c2ccc(C(=N)N)cc2)nn1.Cl.Cl` [Compound 34, 1-(5-Amidino-2-methoxyphenyl)-4-(4-amidinophenyl)-1H-1,2,3-triazole Dihydrochloride], the IC50 in test [2] is less than 58 nM. Besides, the “fold less active against P. falciparum” value in test [2] (relative to congener 31) was 4 fold.

On to `COc1ccc(C(=N)NC(C)C)cc1-n1cc(-c2ccc(C(=N)NC(C)C)cc2)nn1.Cl.Cl` [Compound 35, 1-(5-N-Isopropylamidino-2-methoxyphenyl)-4-(4-N-isopropylamidinophenyl)-1H-1,2,3-triazole Dihydrochloride], for which the “fold less active against P. falciparum” value in test [2] (relative to bis(N-isopropyl)amidine 32) was determined as 5 fold.

As for `COc1ccc(C2=NCCN2)cc1-n1cc(-c2ccc(C3=NCCN3)cc2)nn1` [Compound 36, 1-[5-(4,5-Dihydro-1H-imidazol-2-yl)-2-methoxyphenyl]-4-[4-(4,5-dihydro-1H-imidazol-2-yl)phenyl]-1H-1,2,3-triazole Dihydrochloride], the half-inhibitory concentration (IC50) in test [2] was less than 58 nM.

`COc1cc(C2=NCCN2)ccc1-c1cn(-c2cccc(C3=NCCN3)c2)nn1.Cl.Cl` [Compound 39, 4-[4-(4,5-Dihydro-1H-imidazol-2-yl)-2-methoxyphenyl]-1-[3-(4,5-dihydro-1H-imidazol-2-yl)phenyl]-1H-1,2,3-triazole Dihydrochloride]: the “fold less active against T. brucei rhodesiense” value in test [1] (relative to diamidine 37) is recorded as 804 fold.

Turning to `Cl.Cl.N=C(N)c1ccc(-c2cn(-c3cc(C(=N)N)ccc3O)nn2)cc1` [Compound 40, 1-(5-Amidino-2-hydroxyphenyl)-4-(4-amidinophenyl)-1H-1,2,3-triazole Dihydrochloride], the “fold less active against P. falciparum” value in test [2] (relative to congener 31) came to 308 fold.

Take `Cl.Cl.Oc1ccc(C2=NCCN2)cc1-n1cc(-c2ccc(C3=NCCN3)cc2)nn1` [Compound 42, 1-[5-(4,5-Dihydro-1H-imidazol-2-yl)-2-hydroxyphenyl]-4-[4-(4,5-dihydro-1H-imidazol-2-yl)phenyl]-1H-1,2,3-triazole Dihydrochloride]: the “fold less active against T. brucei rhodesiense” value in test [1] (relative to diimidazoline 33) worked out at 43 fold.

Regarding `CC(C)NC(=N)c1cccc(-n2cc(-c3ccc(C(=N)NC(C)C)cc3O)nn2)c1` [Compound 44, 4-(4-N-Isopropylamidino-2-hydroxyphenyl)-1-(3-N-isopropylamidinophenyl)-1H-1,2,3-triazole Dihydrochloride], the IC50 in test [2] was less than 58 nM.

As to `Oc1cc(C2=NCCN2)ccc1-c1cn(-c2cccc(C3=NCCN3)c2)nn1` [Compound 45, 4-[4-(4,5-Dihydro-1H-imidazol-2-yl)-2-hydroxyphenyl]-1-[3-(4,5-dihydro-1H-imidazol-2-yl)phenyl]-1H-1,2,3-triazole Dihydrochloride], the half-maximal inhibitory concentration (IC50) in test [2] is less than 58 nM.

Turning to `c1cc(-c2cn(-c3ccc(C4=NCCN4)cc3)nn2)ccc1C1=NCCN1` [Compound 48, 1,4-Bis(4-(4,5-dihydro-1H-imidazol-2-yl)phenyl)-1H-1,2,3-triazole Dihydrochloride], in test [2], the IC50 was less than 58 nM.

On to `COc1cc(C(=N)N)ccc1-n1cc(-c2ccc(C(=N)N)cc2)nn1` [Compound 49, 1-(4-Amidino-2-methoxyphenyl)-4-(4-amidinophenyl)-1H-1,2,3-triazole Dihydrochloride], for which, in test [2], the IC50 was less than 58 nM.

Regarding `COc1cc(C(=N)NC(C)C)ccc1-n1cc(-c2ccc(C(=N)NC(C)C)cc2)nn1` [Compound 50, 1-(4-N-Isopropylamidino-2-methoxyphenyl)-4-(4-N-isopropylamidinophenyl)-1H-1,2,3-triazole Dihydrochloride], the IC50 in test [2] is less than 58 nM.

`COc1cc(C2=NCCN2)ccc1-n1cc(-c2ccc(C3=NCCN3)cc2)nn1` [Compound 51, 1-[4-(4,5-Dihydro-1H-imidazol-2-yl)-2-methoxyphenyl]-4-[4-(4,5-dihydro-1H-imidazol-2-yl)phenyl]-1H-1,2,3-triazole Dihydrochloride]: in test [2], the IC50 is less than 58 nM.

Consider `COc1cc(C(=N)NC(C)C)ccc1-c1cn(-c2ccc(C(=N)NC(C)C)cc2)nn1` [Compound 53, 4-(4-N-Isopropylamidino-2-methoxyphenyl)-1-(4-N-isopropylamidinophenyl)-1H-1,2,3-triazole Dihydrochloride], for which the 50% inhibitory concentration (IC50) in test [2] is less than 58 nM.

As for `COc1cc(C2=NCCN2)ccc1-c1cn(-c2ccc(C3=NCCN3)cc2)nn1` [Compound 54, 4-[4-(4,5-Dihydro-1H-imidazol-2-yl)-2-methoxyphenyl]-1-[4-(4,5-dihydro-1H-imidazol-2-yl)phenyl]-1H-1,2,3-triazole Dihydrochloride], the half-maximal inhibitory concentration (IC50) in test [2] was less than 58 nM.

For `Cl.Cl.N=C(N)c1ccc(-c2cn(-c3ccc(C(=N)N)cc3O)nn2)cc1` [Compound 55, 1-(4-Amidino-2-hydroxyphenyl)-4-(4-amidinophenyl)-1H-1,2,3-triazole Dihydrochloride], the “fold less active against T. brucei rhodesiense” value in test [1] (relative to dication 46) was 125 fold.

As for `Oc1cc(C2=NCCN2)ccc1-n1cc(-c2ccc(C3=NCCN3)cc2)nn1` [Compound 57, 1-[4-(4,5-Dihydro-1H-imidazol-2-yl)-2-hydroxyphenyl]-4-[4-(4,5-dihydro-1H-imidazol-2-yl)phenyl]-1H-1,2,3-triazole Dihydrochloride], the IC50 in test [2] is less than 58 nM.

With `CC(C)NC(=N)c1ccc(-n2cc(-c3ccc(C(=N)NC(C)C)cc3O)nn2)cc1.Cl.Cl` [Compound 59, 4-(4-N-Isopropylamidino-2-hydroxyphenyl)-1-(4-N-isopropylamidinophenyl)-1H-1,2,3-triazole Dihydrochloride], the half-maximal inhibitory concentration (IC50) in test [2] was less than 58 nM.
